Results: patent US10487092B2, “Pyrazolopyridinamines as MKNK1 and MKNK2 inhibitors” (BAYER PHARMA AKTIENGESELLSCHAFT, priority 2014, dated 2019)
Read-outs that look alike come from different tables or passages of the source.

Target: human full-length MKNK1 (Homo sapiens (Human), UniProt Q9BUB5, T344D)
Test: MKNK1 kinase high ATP assay (TR-FRET)
Format: biochemical
Protocol: MKNK1 Kinase High ATP Assay
MKNK1-inhibitory activity at high ATP of compounds of the present invention after their preincubation with MKNK1 was quantified employing the TR-FRET-based MKNK1 high ATP assay as described in the following paragraphs.
A recombinant fusion protein of Glutathione-S-Transferase (GST, N-terminally) and human full-length MKNK1 (amino acids 1-424 and T344D of accession number BAA 19885.1), expressed in insect cells using baculovirus expression system and purified via glutathione sepharose affinity chromatography, was purchased from Carna Biosciences (product no 02-145) and used as enzyme. As substrate for the kinase reaction the biotinylated peptide biotin-Ahx-IKKRKLTRRKSLKG (SEQ ID NO: 1, C-terminus in amide form) was used, which can be purchased e.g. from the company Biosyntan (Berlin-Buch, Germany).
For the assay 50 nL of a 100 fold concentrated solution of the test compound in DMSO was pipetted into a black low volume 384 well microtiter plate (Greiner Bio-One, Frickenhausen, Germany), 2 μL of a solution of MKNK1 in aqueous assay buffer [50 mM HEPES pH 7.5, 5 mM MgCl2, 1.0 mM dithiothreitol, 0.005% (v/v) Nonidet-P40 (Sigma)] was added and the mixture was incubated for 15 min at 22° C. to allow pre-binding of the test compounds to the enzyme before the start of the kinase reaction. Then the kinase reaction was started by the addition of 3 μL of a solution of adenosine-tri-phosphate (ATP, 3.3 mM=>final conc. in the 5 μL assay volume is 2 mM) and substrate (0.1 μM=>final conc. in the 5 μL assay volume is 0.06 μM) in assay buffer and the resulting mixture was incubated for a reaction time of 30 min at 22° C. The concentration of MKNK1 was adjusted depending of the activity of the enzyme lot and was chosen appropriate to have the assay in the linear range, typical concentrations were in the range of 0.003 μg/mL. The reaction was stopped by the addition of 5 μL of a solution of TR-FRET detection reagents (5 nM streptavidine-XL665 [Cisbio Bioassays, Codolet, France] and 1 nM anti-ribosomal protein S6 (pSer236)-antibody from Invitrogen [#44921G] and 1 nM LANCE EU-W1024 labeled ProteinG [Perkin-Elmer, product no. AD0071]) in an aqueous EDTA-solution (100 mM EDTA, 0.1% (w/v) bovine serum albumin in 50 mM HEPES pH 7.5).
The resulting mixture was incubated for 1 h at 22° C. to allow the formation of complex between the phosphorylated biotinylated peptide and the detection reagents. Subsequently the amount of phosphorylated substrate was evaluated by measurement of the resonance energy transfer from the Eu-chelate to the streptavidine-XL. Therefore, the fluorescence emissions at 620 nm and 665 nm after excitation at 350 nm were measured in a TR-FRET reader, e.g. a Rubystar (BMG Labtechnologies, Offenburg, Germany) or a Viewlux (Perkin-Elmer). The ratio of the emissions at 665 nm and at […] was taken as the measure for the amount of phosphorylated substrate. The data were normalised (enzyme reaction without inhibitor=0% inhibition, all other assay components but no enzyme=100% inhibition).

[1] = high ATP (2 mM), 15 min preincubation with enzyme, read-out: MKNK1 IC50

human full-length MKNK1, sequence (Q9BUB5 other isoform, or with tags, fused parts or gaps T344D): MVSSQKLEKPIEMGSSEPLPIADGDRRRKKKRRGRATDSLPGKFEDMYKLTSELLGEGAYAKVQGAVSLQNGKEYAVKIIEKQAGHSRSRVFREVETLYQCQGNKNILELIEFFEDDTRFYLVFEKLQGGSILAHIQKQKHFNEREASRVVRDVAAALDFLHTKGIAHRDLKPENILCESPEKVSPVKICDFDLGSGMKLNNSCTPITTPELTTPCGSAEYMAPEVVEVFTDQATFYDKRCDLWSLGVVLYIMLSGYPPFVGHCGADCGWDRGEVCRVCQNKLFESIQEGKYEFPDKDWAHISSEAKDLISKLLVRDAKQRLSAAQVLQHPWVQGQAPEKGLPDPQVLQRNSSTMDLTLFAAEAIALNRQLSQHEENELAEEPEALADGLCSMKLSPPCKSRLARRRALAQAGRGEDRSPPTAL

SMILES	IC50 [1]	IC50
CN(C)C(=O)CN(C)C(=O)[C@H]1CCc2c(sc3ncnc(Nc4ccn5nccc5c4)c23)C1 [Example 26, (7S)—N-[2-(Dimethylamino)-2-oxoethyl]-N-methyl-4-(pyrazolo[1,5-a]pyridin-5-ylamino)-5,6,7,8-tetrahydro[1]benzothieno[2,3-d]pyrimidine-7-carboxamide]	14 nM	
CN(C)C1CN(C(=O)[C@H]2CCc3c(sc4ncnc(Nc5ccn6nccc6c5)c34)C2)C1 [Example 28, [3-(Dimethylamino)azetidin-1-yl][(7S)-4-(pyrazolo[1,5-a]pyridin-5-ylamino)-5,6,7,8-tetrahydro[1]benzothieno[2,3-d]pyrimidin-7-yl]methanone]	19 nM	
CN1CCN(C(=O)[C@H]2CCc3c(sc4ncnc(Nc5ccn6nccc6c5)c34)C2)CC1 [Example 29, (4-Methylpiperazin-1-yl)[(7S)-4-(pyrazolo[1,5-a]pyridin-5-ylamino)-5,6,7,8-tetrahydro[1]benzothieno[2,3-d]pyrimidin-7-yl]methanone]	20 nM	
CC1(O)CN(C(=O)[C@H]2CCc3c(sc4ncnc(Nc5ccn6nccc6c5)c34)C2)C1 [Example 30, (3-Hydroxy-3-methylazetidin-1-yl)[(7S)-4-(pyrazolo[1,5-a]pyridin-5-ylamino)-5,6,7,8-tetrahydro[1]benzothieno[2,3-d]pyrimidin-7-yl]methanone]	16 nM	
CN(C)CCN1CCN(C(=O)[C@H]2CCc3c(sc4ncnc(Nc5ccn6nccc6c5)c34)C2)CC1 [Example 31, {4-[2-(Dimethylamino)ethyl]piperazin-1-yl}[(7S)-4-(pyrazolo[1,5-a]pyridin-5-ylamino)-5,6,7,8-tetrahydro[1]benzothieno[2,3-d]pyrimidin-7-yl]methanone]	26 nM	
O=C1CCN(C(=O)[C@H]2CCc3c(sc4ncnc(Nc5ccn6nccc6c5)c34)C2)CC1 [Example 33, 1-{[(7S)-4-(Pyrazolo[1,5-a]pyridin-5-ylamino)-5,6,7,8-tetrahydro[1]benzothieno[2,3-d]pyrimidin-7-yl]carbonyl}piperidin-4-one]		96 nM
O=C([C@H]1CCc2c(sc3ncnc(Nc4ccn5nccc5c4)c23)C1)N1CCC(F)(F)C1 [Example 34, (3,3-Difluoropyrrolidin-1-yl)[(7S)-4-(pyrazolo[1,5-a]pyridin-5-ylamino)-5,6,7,8-tetrahydro[1]benzothieno[2,3-d]pyrimidin-7-yl]methanone]	71 nM	
O=C([C@H]1CCc2c(sc3ncnc(Nc4ccn5nccc5c4)c23)C1)N1CC2(COC2)C1 [Example 35, 2-Oxa-6-azaspiro[3.3]hept-6-yl[(7S)-4-(pyrazolo[1,5-a]pyridin-5-ylamino)-5,6,7,8-tetrahydro[1]benzothieno[2,3-d]pyrimidin-7-yl]methanone]	75 nM	
O=C([C@H]1CCc2c(sc3ncnc(Nc4ccn5nccc5c4)c23)C1)N1C[C@@H]2C[C@H]1CO2 [Example 36, (1S,4S)-2-Oxa-5-azabicyclo[2.2.1]hept-5-yl[(7S)-4-(pyrazolo[1,5-a]pyridin-5-ylamino)-5,6,7,8-tetrahydro[1]benzothieno[2,3-d]pyrimidin-7-yl]methanone]	91 nM	
O=C([C@H]1CCc2c(sc3ncnc(Nc4ccn5nccc5c4)c23)C1)N1C[C@H]2C[C@@H]1CO2 [Example 37, (1R,4R)-2-Oxa-5-azabicyclo[2.2.1]hept-5-yl[(7S)-4-(pyrazolo[1,5-a]pyridin-5-ylamino)-5,6,7,8-tetrahydro[1]benzothieno[2,3-d]pyrimidin-7-yl]methanone]	56 nM	
CN1C[C@@H]2C[C@H]1CN2C(=O)[C@H]1CCc2c(sc3ncnc(Nc4ccn5nccc5c4)c23)C1 [Example 38, [(1S,4S)-5-Methyl-2,5-diazabicyclo[2.2.1]hept-2-yl][(7S)-4-(pyrazolo[1,5-a]pyridin-5-ylamino)-5,6,7,8-tetrahydro[1]benzothieno[2,3-d]pyrimidin-7-yl]methanone]	25 nM	
CN(C)CCN(C)C1CCN(C(=O)[C@H]2CCc3c(sc4ncnc(Nc5ccn6nccc6c5)c34)C2)CC1 [Example 40, (4-{[2-(Dimethylamino)ethyl](methyl)amino}piperidin-1-yl)[(7S)-4-(pyrazolo[1,5-a]pyridin-5-ylamino)-5,6,7,8-tetrahydro[1]benzothieno[2,3-d]pyrimidin-7-yl]methanone]	6 nM	
CN1C[C@H]2C[C@@H]1CN2C(=O)[C@H]1CCc2c(sc3ncnc(Nc4ccn5nccc5c4)c23)C1 [Example 42, [(1R,4R)-5-Methyl-2,5-diazabicyclo[2.2.1]hept-2-yl][(7S)-4-(pyrazolo[1,5-a]pyridin-5-ylamino)-5,6,7,8-tetrahydro[1]benzothieno[2,3-d]pyrimidin-7-yl]methanone]	11 nM	
O=C(NCCC(F)(F)F)[C@H]1CCc2c(sc3ncnc(Nc4cc5ccnn5cc4Cl)c23)C1 [Example 43, (7S)-4-[(6-Chloropyrazolo[1,5-a]pyridin-5-yl)amino]-N-(3,3,3-trifluoropropyl)-5,6,7,8-tetrahydro[1]benzothieno[2,3-d]pyrimidine-7-carboxamide]	35 nM	
CC(C)NC(=O)[C@H]1CCc2c(sc3ncnc(Nc4cc5ccnn5cc4Cl)c23)C1 [Example 44, (7S)-4-[(6-Chloropyrazolo[1,5-a]pyridin-5-yl)amino]-N-(propan-2-yl)-5,6,7,8-tetrahydro[1]benzothieno[2,3-d]pyrimidine-7-carboxamide]	54 nM	
CN(C)C(=O)[C@H]1CCc2c(sc3ncnc(Nc4cc5ccnn5cc4Cl)c23)C1 [Example 45, (7S)-4-[(6-Chloropyrazolo[1,5-a]pyridin-5-yl)amino]-N,N-dimethyl-5,6,7,8-tetrahydro[1]benzothieno[2,3-d]pyrimidine-7-carboxamide]	12 nM	
CCN(C)C(=O)[C@H]1CCc2c(sc3ncnc(Nc4cc5ccnn5cc4Cl)c23)C1 [Example 46, (7S)-4-[(6-Chloropyrazolo[1,5-a]pyridin-5-yl)amino]-N-ethyl-N-methyl-5,6,7,8-tetrahydro[1]benzothieno[2,3-d]pyrimidine-7-carboxamide]	11 nM	
CN(CC(F)F)C(=O)[C@H]1CCc2c(sc3ncnc(Nc4cc5ccnn5cc4Cl)c23)C1 [Example 47, (7S)-4-[(6-Chloropyrazolo[1,5-a]pyridin-5-yl)amino]-N-(2,2-difluoroethyl)-N-methyl-5,6,7,8-tetrahydro[1]benzothieno[2,3-d]pyrimidine-7-carboxamide]	18 nM	
CN(CCC(F)(F)F)C(=O)[C@H]1CCc2c(sc3ncnc(Nc4cc5ccnn5cc4Cl)c23)C1 [Example 48, (7S)-4-[(6-Chloropyrazolo[1,5-a]pyridin-5-yl)amino]-N-methyl-N-(3,3,3-trifluoropropyl)-5,6,7,8-tetrahydro[1]benzothieno[2,3-d]pyrimidine-7-carboxamide]	35 nM	
CCCCN(C)C(=O)[C@H]1CCc2c(sc3ncnc(Nc4cc5ccnn5cc4Cl)c23)C1 [Example 49, (7S)—N-Butyl-4-[(6-chloropyrazolo[1,5-a]pyridin-5-yl)amino]-N-methyl-5,6,7,8-tetrahydro[1]benzothieno[2,3-d]pyrimidine-7-carboxamide]	15 nM	
N#CC1CN(C(=O)[C@H]2CCc3c(sc4ncnc(Nc5cc6ccnn6cc5Cl)c34)C2)C1 [Example 50, 1-((7S)-4-[(6-Chloropyrazolo[1,5-a]pyridin-5-yl)amino]-5,6,7,8-tetrahydro[1]benzothieno[2,3-d]pyrimidin-7-ylcarbonyl)azetidine-3-carbonitrile]	7 nM	
CC1(O)CN(C(=O)[C@H]2CCc3c(sc4ncnc(Nc5cc6ccnn6cc5Cl)c34)C2)C1 [Example 52, (7S)-4-[(6-Chloropyrazolo[1,5-a]pyridin-5-yl)amino]-5,6,7,8-tetrahydro[1]benzothieno[2,3-d]pyrimidin-7-yl(3-hydroxy-3-methylazetidin-1-yl)methanone]	8 nM	
CN(CCO)C(=O)[C@H]1CCc2c(sc3ncnc(Nc4cc5ccnn5cc4Cl)c23)C1 [Example 55, (7S)-4-[(6-Chloropyrazolo[1,5-a]pyridin-5-yl)amino]-N-(2-hydroxyethyl)-N-methyl-5,6,7,8-tetrahydro[1]benzothieno[2,3-d]pyrimidine-7-carboxamide]	18 nM	
